Experimental data reported in patent US7060792B2, “Protection against ischemia and reperfusion injury” (University of Kentucky Research Foundation, priority 2000, dated 2006).
Square brackets hold non-standard residues; d marks the D form. Peptide text beside a SMILES is read from it.

Assay: Solubility in water or saline
Type: physicochemical
Description: One of the compounds is a heptapeptide having the sequence Tyr-D-Met-Phe-His-Leu-Met-Asp-NH2 SEQ ID NO:1, hereinafter referred to as deltorphin A. Another of the compounds is a thirteen amino acid sequence Tyr-D-Ala-Phe-Gly-Tyr-Pro-Ser-Gly-Glu-Ala-Lys-Lys-Ile SEQ ID NO:2. The peptides may be produced by a number of methods, such as using an automated peptide synthesizer, through recombinant molecular techniques, or isolated from a naturally occurring source, as is known to one skilled in the art. Deltorphin A SEQ ID NO:1 has a molecular weight of 955.1 daltons, and Dermorphin H SEQ ID NO:2 has a molecular weight of about 1430.64 daltons. […] The initial alkaline pH is adjusted to 7.4 with 1 N HCl.

Row | Compound | solubility
1 | CC[C@H](C)[C@H](NC(=O)[C@H](CCCCN)NC(=O)[C@H](CCCCN)NC(=O)[C@H](C)NC(=O)[C@H](CCC(=O)O)NC(=O)CNC(=O)[C@H](CO)NC(=O)[C@@H]1CCCN1C(=O)[C@H](Cc1ccc(O)cc1)NC(=O)CNC(=O)[C@H](Cc1ccccc1)NC(=O)[C@@H](C)NC(=O)[C@@H](N)Cc1ccc(O)cc1)C(=O)O [Dermorphin H, Tyr-D-Ala-Phe-Gly-Tyr-Pro-Ser-Gly-Glu-Ala-Lys-Lys-Ile] (H-Y[dA]FGYPSGEAKKI-OH; N-terminus and C-terminus assumed) | insoluble in water or saline
2 | CSCC[C@H](NC(=O)[C@H](CC(C)C)NC(=O)[C@H](Cc1cnc[nH]1)NC(=O)[C@H](Cc1ccccc1)NC(=O)[C@@H](CCSC)NC(=O)[C@@H](N)Cc1ccc(O)cc1)C(=O)N[C@@H](CC(=O)O)C(N)=O [Deltorphin A, Tyr-D-Met-Phe-His-Leu-Met-Asp-NH2] (H-Y[dM]FHLMD-NH2) | insoluble in water or saline
